Where two headings read alike, the source gives them in different places.
What was measured:
[1] = test system: pDNA-PK induction in FaDU tumour spheroids; assay: Multicellular tumour spheroid + radiation, pDNA-PK (ser2056) inhibition, immunohistochemical endpoint, FaDU; assay type: cell-based; details: Homo sapiens, 20 Gy
Procedure: (§1) Multicellular tumour spheroids determination of compound inhibition of pDNA-PK induction following radiation. Tumour spheroids were grown to approximately 0.5 mm in diameter and irradiated with 20 Gy in combination with inhibitor test compounds to determine their potency. Inhibitor concentration for 50% reduction in pDNA-PK induction (IC50) was determined via immunohistochemical staining in spheroid cryosections taken 2 hours following radiation. For cell survival endpoint 8 Gy radiation was used and 3 hours following radiation spheroids were dissociated, counted and plated for colony forming endpoint.
Spheroid+radiation pDNA-PK. Radiation: 20 Gy. Drug: serial dilution 5 or 10 μM down to 3.5 nM (11 wells). Spheroids: 3-6 spheroids per well (300-500 μm diameter). 20% 02 and 5% CO2. 96 well plate format. Endpoint: fluorescent immunostain pDNA-PK ser2056 and image on microscope. Analysis: determine EC50 concentrations that decreases pDNA-PK induction by 50% after irradiation.
(§2) Multicellular tumour spheroids were used to determine potency of test compounds in a 3D tissue environment using inhibition of pDNA-PK induction following radiation or cell survival as the endpoint. For the pDNA-PK endpoint HCT116 or FaDU tumour spheroids were grown to approximately 0.5 mm in diameter and irradiated with 20 Gy in combination with inhibitor test compounds to determine their potency. Experiments were carried out in 96 well plates containing 0.7 mls of MEM media containing 10% FBS and 10 mM glucose under 20% O2 & 5% CO2 at 37° C. Following dilution of compounds 1:1000 from DMSO stocks, compounds were serially diluted from 10 μM down to 3.5 nM and 5-10 spheroids added. 96 well plates were constantly stirred to avoid spheroids settling during the course of the experiment. The inhibitor concentration for 50% reduction in pDNA-PK induction (EC50) was determined via immunohistochemical staining in spheroid cryosections taken 2 hours following radiation using anti-pDNA-PK (ser 2056) and fixed immediately in formalin following sectioning. For cell survival endpoint 8 Gy radiation was used and, 3 hours following radiation, spheroids were dissociated, counted and plated for colony forming endpoint. Data presented in the table compound potency as EC50 [μM].

[2] = test system: HCT116 tumour spheroids; assay: Spheroid + radiation colony forming cell survival assay (SF), HCT116; assay type: cell-based; details: Homo sapiens, HCT-116, 8 Gy
Procedure: as §1
Spheroid+radiation colony forming cell survival assay (SF). Radiation 8 Gy. Drug: serial dilution 5 μM down to 10 nM (12 wells×2 repeat). Spheroids: 5-10 spheroids per well (300 to 500 μm diameter). HCT116. 5% 02 and 5% CO2. 96 well pate format for assay. Protocol: pre incubate 1 hour with drug, irradiate 8 Gy, post incubate 3 hrs with drug, dissociate spheroids and count cells and plate for colony forming assay. Endpoint: wait 4-7 days and count colonies. Analysis: determine EC50 concentration that increase cell kill by 50% over radiation alone.
as §2

[3] = 2 hours following radiation, 20% O2, Example 9 Study 2, read-out: Spheroid Cell line: FaDU Immunohistochemical endpoint pDNA-PK inhibition EC50
[4] = 2 h, spheroids, 20% O2, Example 8, read-out: Cell line: FaDU Immunohistochemical endpoint pDNA-PK inhibition EC50
[5] = plated 3 hours following radiation, Example 9 Study 2, read-out: Spheroid Cell line: HCT116 Colony forming endpoint Surviving Fraction EC50
[6] = spheroids, 5% O2, concentration that increases cell kill by 50% over radiation alone, Example 8, read-out: Cell line: HCT116 Colony forming endpoint Surviving Fraction EC50

With CN(C)C(=O)COc1cnc(N[C@H]2CC[C@@H](Oc3nc(N4CCOCC4)cc4ncccc34)CC2)nc1 [Compound 54, N,N-Dimethyl-2-((2-(((1s,4s)-4-((7-morpholino-1,6-naphthyridin-5-yl)oxy)cyclohexyl)amino)pyrimidin-5-yl)oxy)acetamide] the EC50 [1, 3] was 0.01 to 0.5 µM, the EC50 [1, 4] was 0.01 to 0.5 µM and the EC50 [2, 5] was 0.01 to 0.5 µM. It also gave an EC50 [2, 6] of 0.01 to 0.5 µM.

Work on CN(C)CCOc1cnc(N[C@H]2CC[C@@H](Oc3nc(N4CCOCC4)cc4ncccc34)CC2)nc1 [Compound 64, 5-(2-(Dimethylamino)ethoxy)-N-((1s,4s)-4-((7-morpholino-1,6-naphthyridin-5-yl)oxy)cyclohexyl)pyrimidin-2-amine] yielded an EC50 [1, 3] of 0.01 to 0.5 µM, an EC50 [1, 4] of 0.01 to 0.5 µM and an EC50 [2, 5] of 0.01 to 0.5 µM. The EC50 [2, 6] was 0.01 to 0.5 µM.

Compound O=C(O)c1cnc2cc(N3CCOCC3)nc(O[C@H]3CC[C@@H](n4ccnc4)CC3)c2c1 [Compound 165, 5-(((1s,4s)-4-(1H-imidazol-1-yl)cyclohexyl)oxy)-7-morpholino-1,6-naphthyridine-3-carboxylic acid] has an EC50 [2, 5] of 10 to 100 µM and an EC50 [2, 6] of 10 to 100 µM.

With CS(=O)(=O)NC(=O)c1cnc2cc(N3CCOCC3)nc(O[C@H]3CC[C@@H](n4ccnc4)CC3)c2c1 [Compound 175, 5-(((1s,4s)-4-(1H-imidazol-1-yl)cyclohexyl)oxy)-N-(methylsulfonyl)-7-morpholino-1,6-naphthyridine-3-carboxamide] the EC50 [2, 5] was 10 to 100 µM and the EC50 [2, 6] was 10 to 100 µM.

O=C(NO)c1cnc2cc(N3CCOCC3)nc(O[C@H]3CC[C@@H](n4ccnc4)CC3)c2c1 [Compound 172, 5-(((1s,4s)-4-(1H-imidazol-1-yl)cyclohexyl)oxy)-N-hydroxy-7-morpholino-1,6-naphthyridine-3-carboxamide] showed an EC50 [1, 3] of 1 to 10 µM and an EC50 [1, 4] of 1 to 10 µM.
